Here are results for 20 compounds from patent US20250268877A1 (BIOGEN MA INC., priority 2020, published 2025).

Series [1] can be described thus: Kinetic solubility assay (CLND), potassium phosphate buffer pH 6.8. As to conditions: pH 6.8, 2% DMSO, 24 hours at ambient temperature; for solubility at 24 h: potassium phosphate buffer, pH 6.8, aqueous buffer, kinetic from dmso stock. The series is classed as physicochemical.
Description: • Inject filtrates into the nitrogen detector for quantification on Analiza's Automated Discovery Workstation (ADW). • Solubility results generated in μg/mL
The target in a further series is MDR1 (Homo sapiens (Human), UniProt P08183). The experiment in a line: MDR1-MDCK assay (apparent permeability, efflux ratio). It counts as in vitro ADME. The note with it: human, MDCK-MDR1, 1 μM, read-out: MDR1-MDCK_Efflux Ratio.
Chain of MDR1 (P08183 whole entry): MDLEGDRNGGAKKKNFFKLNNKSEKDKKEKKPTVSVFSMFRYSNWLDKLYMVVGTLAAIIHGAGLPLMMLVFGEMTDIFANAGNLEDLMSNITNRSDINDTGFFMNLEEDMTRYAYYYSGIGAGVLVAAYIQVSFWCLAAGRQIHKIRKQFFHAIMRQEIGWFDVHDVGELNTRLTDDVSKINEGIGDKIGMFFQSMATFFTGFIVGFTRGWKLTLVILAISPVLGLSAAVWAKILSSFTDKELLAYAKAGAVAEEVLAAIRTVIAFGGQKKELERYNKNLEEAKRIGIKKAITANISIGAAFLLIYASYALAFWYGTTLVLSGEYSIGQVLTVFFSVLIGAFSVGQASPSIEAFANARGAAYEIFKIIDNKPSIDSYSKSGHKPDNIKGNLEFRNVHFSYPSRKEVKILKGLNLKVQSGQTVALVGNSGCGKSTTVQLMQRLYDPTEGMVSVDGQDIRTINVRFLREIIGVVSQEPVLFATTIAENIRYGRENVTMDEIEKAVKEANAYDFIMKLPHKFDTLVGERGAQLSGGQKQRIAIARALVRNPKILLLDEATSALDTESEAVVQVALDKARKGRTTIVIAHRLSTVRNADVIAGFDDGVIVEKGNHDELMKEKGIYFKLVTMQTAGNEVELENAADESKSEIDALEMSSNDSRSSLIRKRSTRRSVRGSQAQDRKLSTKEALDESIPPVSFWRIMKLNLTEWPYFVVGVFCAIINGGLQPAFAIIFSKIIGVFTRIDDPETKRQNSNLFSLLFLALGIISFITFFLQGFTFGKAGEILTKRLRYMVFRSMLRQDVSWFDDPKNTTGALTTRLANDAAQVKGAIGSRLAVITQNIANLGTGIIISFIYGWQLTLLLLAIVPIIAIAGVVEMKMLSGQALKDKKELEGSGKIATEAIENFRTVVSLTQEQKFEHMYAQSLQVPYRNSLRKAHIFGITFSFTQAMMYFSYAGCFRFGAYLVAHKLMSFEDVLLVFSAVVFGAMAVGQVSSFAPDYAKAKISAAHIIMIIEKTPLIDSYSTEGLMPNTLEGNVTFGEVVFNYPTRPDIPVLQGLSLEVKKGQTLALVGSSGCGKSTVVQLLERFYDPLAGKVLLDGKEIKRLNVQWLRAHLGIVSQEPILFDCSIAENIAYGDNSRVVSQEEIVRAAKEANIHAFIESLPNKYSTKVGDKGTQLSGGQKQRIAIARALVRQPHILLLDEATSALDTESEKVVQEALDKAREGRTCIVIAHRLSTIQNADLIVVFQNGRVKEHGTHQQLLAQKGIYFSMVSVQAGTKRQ
In the next series the target is IRAK4 (Homo sapiens (Human), UniProt Q9NWZ3). The experiment in a line: IRAK4 2-hour 1 mM ATP Biochemical Assay (MesoScale Detection format). As to conditions: 100 pM IRAK4, read-out: IRAK4 IC50.
Chain of IRAK4 (Q9NWZ3 whole entry): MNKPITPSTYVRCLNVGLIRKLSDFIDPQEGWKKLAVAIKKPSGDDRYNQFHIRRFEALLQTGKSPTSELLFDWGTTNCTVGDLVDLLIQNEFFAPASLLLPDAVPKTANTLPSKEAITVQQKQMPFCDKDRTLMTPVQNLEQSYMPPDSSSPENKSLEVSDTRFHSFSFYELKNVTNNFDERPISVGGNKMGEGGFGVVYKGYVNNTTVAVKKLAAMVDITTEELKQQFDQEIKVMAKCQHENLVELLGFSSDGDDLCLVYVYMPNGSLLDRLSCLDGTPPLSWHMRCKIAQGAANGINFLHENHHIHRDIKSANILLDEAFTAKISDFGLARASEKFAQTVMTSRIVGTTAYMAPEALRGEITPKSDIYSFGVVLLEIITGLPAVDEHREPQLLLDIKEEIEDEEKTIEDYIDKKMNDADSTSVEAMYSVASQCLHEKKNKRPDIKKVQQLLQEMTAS

In brackets after ≈: the same amount, converted by molar mass.

Protocol for IRAK4: The 2-hour 1 mM ATP Biochemical Assay employed a MesoScale Detection (MSD) format.
The activity was quenched with 11 μl of 70 mM EDTA, pH 8.
To detect the phosphorylated biotinylated peptide substrate, 30 μl of the quenched reaction mixture was added to equivalent wells of a 384 well streptavidin coated MesoScale plate (Meso Scale Discovery #L21SA-1). After a 1 hour incubation of the plate for 1 hour at room temperature with gentle mixing, the plate wells were washed 3 times with 50 mM Tris, pH 7.5, 150 mM NaCl, 0.02% Tween-20.
A 25 μl volume of 1:500 anti-P-Threonine Rabbit polyclonal Antibody plus 1:500 Goat-anti-Rabbit Sulfo Tag Antibody (Meso Scale Discovery R^32AB-1) in 50 mM Tris, pH 7.5, 150 mM NaCl, 0.02% Tween-20 plus 2% BSA was then added to each well. After a 1-hour incubation of the plate for 1 hour at room temperature with gentle mixing, the plate wells were washed, 3 times with 50 mM Tris, pH 7.5, 150 mM NaCl, 0.02% Tween-20.

As a reminder, the solubility is the dissolved amount per volume that the medium holds. Read a low solubility as a poorly soluble substance. By IC50 is commonly meant the point on the concentration scale where inhibition reaches its midpoint. For `COCC12CC(n3cc4cc(C(=O)Nc5cccn([C@@H]6C[C@H]6F)c5=O)c(OC(C)C)cc4n3)(CO1)C2` (single isomer, unassigned) [Example 55], the solubility at 24 h in series [1] stood at 60.5 µg/mL (≈ 122 µM). The efflux ratio at 120 min, 1 μM at MDR1 amounted to 3.71. For the same compound, the half-inhibitory concentration (IC50) at IRAK4 was 0.8 nM.

`COCC12CC(n3cc4cc(C(=O)Nc5cccn([C@H]6C[C@@H]6F)c5=O)c(OC(C)C)cc4n3)(CO1)C2` (single isomer, unassigned) [Example 56]: the solubility at 24 h in series [1] is 63.9 µg/mL (≈ 129 µM). Moreover, the efflux ratio at 120 min, 1 μM at MDR1 was 3.31. Further, the concentration for half-maximal inhibition (IC50) at IRAK4 came out at 0.8 nM.

`COCC12CC(n3cc4cc(C(=O)Nc5cccn([C@H]6C[C@@H]6F)c5=O)c(OC5CCC5)cc4n3)(CO1)C2` (single isomer, unassigned) [Example 58] registered a solubility at 24 h in series [1] of 52.3 µg/mL (≈ 103 µM). Also, the efflux ratio at 120 min, 1 μM on MDR1 is 4.05. For the same compound, the IC50 at IRAK4 turned out to be 1.5 nM.

As for `CC(C)Oc1cc2nn([C@@]34CC[C@@](C)(C3)OC4)cc2cc1C(=O)Nc1cccn([C@H]2C[C@@H]2F)c1=O` (single isomer, unassigned) [Example 60], the solubility at 24 h in series [1] amounted to 52.9 µg/mL (≈ 110 µM). For the same compound, the efflux ratio at 120 min, 1 μM on MDR1 turned out to be 1.75. In addition, the 50% inhibitory concentration (IC50) at IRAK4 came to 0.5 nM.

In the case of `CC(C)Oc1cc2nn([C@]34CC[C@](C)(C3)OC4)cc2cc1C(=O)Nc1cccn([C@@H]2C[C@H]2F)c1=O` (single isomer, unassigned) [Example 61], the solubility at 24 h in series [1] came to 51.5 µg/mL (≈ 107 µM). Also, the efflux ratio at 120 min, 1 μM on MDR1 came out at 1.43. For the same compound, on IRAK4, the IC50 was 0.5 nM.

Turning to `CC(C)Oc1cc2nn([C@]34CC[C@](C)(C3)OC4)cc2cc1C(=O)Nc1cccn([C@H]2C[C@@H]2F)c1=O` (single isomer, unassigned) [Example 62], the solubility at 24 h in series [1] is 56.1 µg/mL (≈ 117 µM). In addition, the efflux ratio at 120 min, 1 μM at MDR1 came to 1.6. Also, at IRAK4, the half-maximal inhibitory concentration (IC50) turned out to be 0.6 nM.

Turning to `COCC12CC(n3cc4cc(C(=O)Nc5cccn([C@@H]6C[C@H]6F)c5=O)c(OC(C)C)nc4n3)(CO1)C2` (single isomer, unassigned) [Example 63], the solubility at 24 h in series [1] is 58.8 µg/mL (≈ 118 µM). Besides, the efflux ratio at 120 min, 1 μM on MDR1 stood at 5.06. For the same compound, on IRAK4, the 50% inhibitory concentration (IC50) stood at 0.5 nM.

Take `COCC12CC(n3cc4cc(C(=O)Nc5cccn([C@@H]6C[C@H]6F)c5=O)c(OC5CCC5)nc4n3)(CO1)C2` (single isomer, unassigned) [Example 65]: the solubility at 24 h in series [1] came to 13 µg/mL (≈ 25.5 µM). The efflux ratio at 120 min, 1 μM on MDR1 was found to be 3.22. Moreover, the IC50 on IRAK4 was 0.8 nM.

In turn, `COCC12CC(n3cc4cc(C(=O)Nc5cccn([C@H]6C[C@@H]6F)c5=O)c(OC5CCC5)nc4n3)(CO1)C2` (single isomer, unassigned) [Example 66] yielded a solubility at 24 h in series [1] of 12.3 µg/mL (≈ 24.1 µM). Moreover, the efflux ratio at 120 min, 1 μM at MDR1 was found to be 3.38. The IC50 at IRAK4 is 0.8 nM.

As to `O=C(Nc1cccn([C@H]2C[C@H]2F)c1=O)c1cc2cn([C@@]34CC[C@@H](C3)OC4)nc2nc1OC1CC1` (single isomer, unassigned) [Example 87], the solubility at 24 h in series [1] worked out at 62.4 µg/mL (≈ 134 µM). The efflux ratio at 120 min, 1 μM at MDR1 was determined as 7.93. For the same compound, the half-maximal inhibitory concentration (IC50) on IRAK4 came to 0.2 nM.

With `C[C@@H]1C[C@@H]1n1cccc(NC(=O)c2cc3cn([C@@]45CC[C@@H](C4)OC5)nc3nc2OC2CC2)c1=O` (single isomer, unassigned) [Example 93], the “Solubility pH 6.8” value in series [1] turned out to be 47.6 ug/mL. The efflux ratio at 120 min, 1 μM on MDR1 was 2.5. Moreover, the half-maximal inhibitory concentration (IC50) at IRAK4 stood at 0.5 nM.

On to `CC(C)Oc1cc2nn([C@]34CC[C@](C)(C3)OC4)cc2cc1C(=O)Nc1cccn(C2CC2)c1=O` [Example 3, N-(1-cyclopropyl-2-oxo-1,2-dihydropyridin-3-yl)-6-isopropoxy-2-((1R,4R)-1-methyl-2-oxabicyclo[2.2.1]heptan-4-yl)-2H-indazole-5-carboxamide], for which, in series [1], the solubility at 24 h amounted to 7.9 µg/mL (≈ 17.1 µM). In addition, the efflux ratio at 120 min, 1 μM on MDR1 came out at 1.59. Besides, the IC50 at IRAK4 worked out at 0.5 nM.

In series [1], `C[C@@]12CC[C@@](n3cc4cc(C(=O)Nc5cccn(C6CC6)c5=O)c(OC5CCC5)nc4n3)(CO1)C2` [Example 6, 6-cyclobutoxy-N-(1-cyclopropyl-2-oxo-1,2-dihydropyridin-3-yl)-2-((1S,4S)-1-methyl-2-oxabicyclo[2.2.1]heptan-4-yl)-2H-pyrazolo[3,4-b]pyridine-5-carboxamide] returned a solubility at 24 h of 5.57 µg/mL (≈ 11.7 µM). At MDR1, the efflux ratio at 120 min, 1 μM is 1.59. Moreover, the IC50 on IRAK4 is 0.4 nM.

As for `C[C@]12CC[C@](n3cc4cc(C(=O)Nc5cccn(C6CC6)c5=O)c(OC5CCC5)nc4n3)(CO1)C2` [Example 7, 6-cyclobutoxy-N-(1-cyclopropyl-2-oxo-1,2-dihydropyridin-3-yl)-2-((1R,4R)-1-methyl-2-oxabicyclo[2.2.1]heptan-4-yl)-2H-pyrazolo[3,4-b]pyridine-5-carboxamide], the solubility at 24 h in series [1] stood at 10.3 µg/mL (≈ 21.6 µM). The efflux ratio at 120 min, 1 μM at MDR1 is 1.43. In addition, on IRAK4, the 50% inhibitory concentration (IC50) is 0.7 nM.

On to `CC(C)Oc1nc2nn(C3CCOCC3)cc2cc1C(=O)Nc1cccn(C2CC2)c1=O` [Example 13], for which the solubility at 24 h in series [1] was 19.8 µg/mL (≈ 45.3 µM). In addition, the efflux ratio at 120 min, 1 μM on MDR1 was 3.41. Moreover, the half-maximal inhibitory concentration (IC50) on IRAK4 was found to be 0.7 nM.

In the case of `CC[C@@H](C)Oc1nc2nn(C34COC(C)(C3)C4)cc2cc1C(=O)Nc1cccn(C2CC2)c1=O` [Example 14, (R)-6-(sec-butoxy)-N-(1-cyclopropyl-2-oxo-1,2-dihydropyridin-3-yl)-2-(1-methyl-2-oxabicyclo[2.1.1]hexan-4-yl)-2H-pyrazolo[3,4-b]pyridine-5-carboxamide], the solubility at 24 h in series [1] is 43 µg/mL (≈ 92.8 µM). Besides, on MDR1, the efflux ratio at 120 min, 1 μM came out at 2.27. In addition, on IRAK4, the IC50 came out at 1.4 nM.

As to `CC(C)Oc1nc2nn([C@H]3CCCOC3)cc2cc1C(=O)Nc1cccn(C2CC2)c1=O` [Example 16, (S)—N-(1-cyclopropyl-2-oxo-1,2-dihydropyridin-3-yl)-6-isopropoxy-2-(tetrahydro-2H-pyran-3-yl)-2H-pyrazolo[3,4-b]pyridine-5-carboxamide], the solubility at 24 h in series [1] amounted to 44.6 µg/mL (≈ 102 µM). Further, the efflux ratio at 120 min, 1 μM at MDR1 came out at 2.09. Besides, the concentration for half-maximal inhibition (IC50) on IRAK4 is 0.2 nM.

`CC12CC(n3cc4cc(C(=O)Nc5cccn(C6CC6)c5=O)c(OC5CCC5)nc4n3)(CO1)C2` [Example 24, 6-cyclobutoxy-N-(1-cyclopropyl-2-oxo-1,2-dihydropyridin-3-yl)-2-(1-methyl-2-oxabicyclo[2.1.1]hexan-4-yl)-2H-pyrazolo[3,4-b]pyridine-5-carboxamide] had a solubility at 24 h in series [1] of 5.53 µg/mL (≈ 12 µM). Also, the efflux ratio at 120 min, 1 μM at MDR1 is 2.53. Moreover, at IRAK4, the IC50 was determined as 0.4 nM.

As for `CC12CC(n3cc4cc(C(=O)Nc5cccn([C@@H]6C[C@@H]6F)c5=O)c(OC5CCC5)nc4n3)(CO1)C2` [Example 26, 6-cyclobutoxy-N-(1-((1R,2S)-2-fluorocyclopropyl)-2-oxo-1,2-dihydropyridin-3-yl)-2-(1-methyl-2-oxabicyclo[2.1.1]hexan-4-yl)-2H-pyrazolo[3,4-b]pyridine-5-carboxamide], in series [1], the solubility at 24 h is 1.6 µg/mL (≈ 3.34 µM). Moreover, the efflux ratio at 120 min, 1 μM at MDR1 was determined as 4.05. At IRAK4, the IC50 was 7.3 nM.

In series [1], `CC(C)Oc1nc2nn(C34COC(C3)C4)cc2cc1C(=O)Nc1cccn(C2CC2)c1=O` [Example 28, 2-(2-oxabicyclo[2.1.1]hexan-4-yl)-N-(1-cyclopropyl-2-oxo-1,2-dihydropyridin-3-yl)-6-isopropoxy-2H-pyrazolo[3,4-b]pyridine-5-carboxamide] came in with a solubility at 24 h of 2.7 µg/mL (≈ 6.2 µM). For the same compound, the efflux ratio at 120 min, 1 μM on MDR1 was found to be 4.72. The IC50 at IRAK4 was found to be 0.4 nM.
